Measured values taken from patent publication US20240285621A1, “PYRAZOLYL-PYRIMIDINE DERIVATIVES AS KINASE INHIBITORS” (NERVIANO MEDICAL SCIENCES S.R.L., priority 2020, published 2024).

Assays:
[1] = biological target: T1, SYK (Homo sapiens, UniProt P43405); assay: Biochemical kinase inhibition assay on SYK, KinaseGlo assay format; conditions: Table A; KinaseGlo format, pre-activated SYK 2.5 nM, ATP 2.5 μM, substrate BioDBn*327 125 uM, 60 minutes at rt; read-out: IC50 (μM) Kglo
T1 construct: Recombinant proteins SYK FL was produced at NMS via baculo virus infection in insect cells; His; GST; made in house; host or cells: insect cells (baculovirus)

[2] = biological target: T1, SYK; assay: Biochemical kinase inhibition assay on SYK, ADPGlo assay format; conditions: Table A, pre-activated SYK 0.6 nM, ATP 60 μM, BioDBn*327 125 μM, 60 minutes at room temperature

| SMILES | IC50 [1] [µM] | IC50 [2] [µM] |
| --- | --- | --- |
| C[C@@H](CN(C)C)NC(=O)c1cc(-c2ccnc(Nc3cnn(C)c3)n2)nn1C [Example 75, N-[(2S)-1-(dimethylamino)propan-2-yl]-1-methyl-3-{2-[(1-methyl-1H-pyrazol-4-yl)amino]pyrimidin-4-yl}-1H-pyrazole-5-carboxamide] | 0.273 | 0.473 |
| COc1cc(Nc2nccc(-c3cc(C(=O)N[C@@H](C)CN(C)C)n(C)n3)n2)cc(OC)c1 [Example 67, 3-{2-[(3,5-dimethoxyphenyl)amino]pyrimidin-4-yl}-N-[(2S)-1-(dimethylamino)propan-2-yl]-1-methyl-1H-pyrazole-5-carboxamide] | < 0.004 | 0.014 |
| COc1cc(C#N)cc(Nc2nccc(-c3cc(C(=O)N[C@@H](C)CN(C)C)n(C)n3)n2)c1 [Example 78, 3-{2-[(3-cyano-5-methoxyphenyl)amino]pyrimidin-4-yl}-N-[(2S)-1-(dimethylamino)propan-2-yl]-1-methyl-1H-pyrazole-5-carboxamide] | 0.015 | 0.033 |
| COc1cc(F)cc(Nc2nccc(-c3cc(C(=O)N[C@@H](C)CN(C)C)n(C)n3)n2)c1 [Example 65, N-[(2S)-1-(dimethylamino)propan-2-yl]-3-{2-[(3-fluoro-5-methoxyphenyl)amino]pyrimidin-4-yl}-1-methyl-1H-pyrazole-5-carboxamide] | 0.009 | 0.038 |
| COc1cc(Nc2nccc(-c3cc(C(=O)N[C@@H](C)CN4CCCC4)n(C)n3)n2)cc(OC)c1 [Example 69, 3-{2-[(3,5-dimethoxyphenyl)amino]pyrimidin-4-yl}-1-methyl-N-[(2S)-1-(pyrrolidin-1-yl)propan-2-yl]-1H-pyrazole-5-carboxamide] | 0.008 | 0.01 |
| COc1cc(F)cc(Nc2nccc(-c3cc(C(=O)N[C@@H](C)CN4CCC4)n(C)n3)n2)c1 [Example 48, N-[(2S)-1-(azetidin-1-yl)propan-2-yl]-3-{2-[(3-fluoro-5-methoxyphenyl)amino]pyrimidin-4-yl}-1-methyl-1H-pyrazole-5-carboxamide] | 0.006 | 0.023 |
| COc1cncc(Nc2nccc(-c3cc(C(=O)N[C@@H](C)CN4CCC4)n(C)n3)n2)c1 [Example 80, N-[(2S)-1-(azetidin-1-yl)propan-2-yl]-3-{2-[(5-methoxypyridin-3-yl)amino]pyrimidin-4-yl}-1-methyl-1H-pyrazole-5-carboxamide] | 0.044 | 0.081 |
| COc1cc(C#N)cc(Nc2nccc(-c3cc(C(=O)N[C@@H](C)CN4CCC4)n(C)n3)n2)c1 [Example 79, N-[(2S)-1-(azetidin-1-yl)propan-2-yl]-3-{2-[(3-cyano-5-methoxyphenyl)amino]pyrimidin-4-yl}-1-methyl-1H-pyrazole-5-carboxamide] | 0.007 | 0.026 |
| COc1cc(Nc2nccc(-c3cc(C(=O)NCCN(C)C)n(C)n3)n2)cc(OC)c1 [Example 72, 3-{2-[(3,5-dimethoxyphenyl)amino]pyrimidin-4-yl}-N-[2-(dimethylamino)ethyl]-1-methyl-1H-pyrazole-5-carboxamide] | 0.034 | 0.087 |
| Cc1cc(C)cc(Nc2nccc(-c3cc(C(=O)NCCN4CCOCC4)n(C)n3)n2)c1 [Example 9, 3-{2-[(3,5-dimethylphenyl)amino]pyrimidin-4-yl}-1-methyl-N-[2-(morpholin-4-yl)ethyl]-1H-pyrazole-5-carboxamide] | 0.398 |  |
| Cc1cc(C)cc(Nc2nccc(-c3cc(C(=O)NC(C)C)n(C)n3)n2)c1 [Example 4, 3-{2-[(3,5-dimethylphenyl)amino]pyrimidin-4-yl}-1-methyl-N-(propan-2-yl)-1H-pyrazole-5-carboxamide] | 0.111 |  |
| CC(C)[C@@H](CN1CCC1)NC(=O)c1cc(-c2ccnc(Nc3cc(Cl)cc(Cl)c3)n2)nn1C [Example 61, N-[(2S)-1-(azetidin-1-yl)-3-methylbutan-2-yl]-3-{2-[(3,5-dichlorophenyl)amino]pyrimidin-4-yl}-1-methyl-1H-pyrazole-5-carboxamide] | 0.004 |  |
